Data taken from patent US20080160108A1, “Method of treating muscular dystrophies with an inhibitor of histone deacetylase” (Centre National de la Recherche Scientifique- CNRS, a …, priority 2002, published 2008).

Experiments:
utrophin [1] = test: Utrophin in muscle of mdx mice injected i.p., immunofluorescence and Western blot; assay type: in vivo, mouse; conditions: 200 mg/kg/day i.p. daily for 6 weeks
Method: Mdx mice were injected daily i.p. and for 6 weeks with 200 mg/kg/day either with butyrate or with L-arginine or with physiological serum. It is observed that the utrophin is poorly expressed in the muscle of the mdx mice injected with physiological serum used as control. […] It should be noted that the augmentation of utrophin is greater in the case of the mice injected with butyrate. The augmentation of the utrophin was quantified in Western blot.

utrophin [2] = test: Utrophin expression in myotubes of mdx mice, Western blot; assay type: cell-based, mouse; conditions: myotubes of dystrophic mdx mice (line xlt), 5 mM, 48 h
Method: Myotubes of dystrophic mdx mice (line xlt) are treated with 5 mM of butyrate for 48 h. The augmentation of utrophin is then quantified in Western blot.

utrophin [3] = test: Utrophin in muscle of healthy OF1 mice injected i.p.; assay type: in vivo, mouse
Method: OF1 mice were injected daily with i.p. and for 6 weeks with 100, 200 or 300 mg/kg/day either with arginine butyrate or with physiological serum. No utrophin was observed on the membrane in the muscle of the mice injected with the physiological serum used as control (“non-treated”). […] This augmentation is dosage-dependent. The induction of utrophin under the muscular membrane is significant probably on account of an additive effect of the arginine via the NO and of the butyrate via the activation of the transcription of the utrophin gene.

N=C(N)NCCC[C@H](N)C(=O)O [L-arginine]
utrophin localisation in muscle (utrophin [1]; vs physiological serum control): the utrophin appears under the muscular membrane

CCCC(=O)O [butyrate]
augmentation of expression of utrophin (factor, intensity of Western blot bands) (utrophin [2]): 2 | augmentation of expression of utrophin (factor, intensity of Western blot bands) (utrophin [1]): 2

arginine butyrate
dose dependence of the augmentation of utrophin (utrophin [3]; OF1 mice, 100, 200 or 300 mg/kg/day i.p. daily for 6 weeks): dosage-dependent | utrophin localisation in muscle (utrophin [3]; OF1 mice, 100, 200 or 300 mg/kg/day i.p. daily for 6 weeks, vs physiological serum control): utrophin appears very clearly under the muscular membrane | quantity of utrophin (utrophin [3]; healthy muscles and mdx mouse (FIG. 4), summary statement): significantly augments the quantity of utrophin
